Results from doi:10.1101/2024.07.04.602053v1, “Evidence for low affinity of GABA at the vesicular monoamine transporter VMAT2 – implications for transmitter co-release from dopamine neurons” (biorxiv, 2024).

Target: T1, human VMAT2-eGFP (HEK-293-VMAT2:eGFP) (Homo sapiens, UniProt Q05940)
T1 construct: gene SLC18A2
Test: inhibition of [3H]dopamine uptake, digitonin-permeabilized cells
Type: cell-based

T1 sequence (Q05940 whole entry): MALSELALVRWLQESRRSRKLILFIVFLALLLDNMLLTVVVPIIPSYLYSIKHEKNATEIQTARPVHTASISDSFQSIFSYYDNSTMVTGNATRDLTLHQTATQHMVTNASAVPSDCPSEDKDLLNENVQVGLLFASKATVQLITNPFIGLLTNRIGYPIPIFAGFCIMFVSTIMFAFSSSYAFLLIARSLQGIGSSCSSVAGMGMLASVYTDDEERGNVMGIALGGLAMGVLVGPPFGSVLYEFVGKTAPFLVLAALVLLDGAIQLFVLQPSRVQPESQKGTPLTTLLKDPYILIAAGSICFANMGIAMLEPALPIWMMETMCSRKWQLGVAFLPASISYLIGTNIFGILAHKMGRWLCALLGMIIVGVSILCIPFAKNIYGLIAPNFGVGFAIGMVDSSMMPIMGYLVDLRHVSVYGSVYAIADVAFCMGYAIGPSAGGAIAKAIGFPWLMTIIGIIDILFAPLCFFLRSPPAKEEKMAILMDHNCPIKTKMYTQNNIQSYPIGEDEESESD

**Q.** How did the IC50 turn out when NCCc1ccc(O)c(O)c1 [dopamine] was run?
**A.** The IC50 was 4900 nM.

**Q.** Which IC50 does the source give for COc1cc2c(cc1OC)C1CC(=O)C(CC(C)C)CN1CC2 (centres unmarked) [tetrabenazine] here?
**A.** Its IC50 is 28.8 nM.
